Test [1] addresses T1, Corticotropin-releasing factor receptor 2/Corticotropin-releasing factor-binding protein (Homo sapiens, UniProt P24387+Q13324).
T1 sequence (Q13324 whole entry): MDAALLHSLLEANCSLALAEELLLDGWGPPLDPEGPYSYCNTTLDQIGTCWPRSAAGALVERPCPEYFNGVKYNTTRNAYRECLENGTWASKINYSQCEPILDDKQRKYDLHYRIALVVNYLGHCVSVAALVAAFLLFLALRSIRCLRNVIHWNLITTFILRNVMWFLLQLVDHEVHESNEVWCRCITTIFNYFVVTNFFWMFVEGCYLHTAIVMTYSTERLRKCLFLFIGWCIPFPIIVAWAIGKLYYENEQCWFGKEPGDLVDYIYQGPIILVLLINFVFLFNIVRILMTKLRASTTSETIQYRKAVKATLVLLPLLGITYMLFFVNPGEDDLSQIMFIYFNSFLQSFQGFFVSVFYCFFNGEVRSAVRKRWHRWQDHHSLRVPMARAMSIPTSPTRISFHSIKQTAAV
T1 sequence (P24387 whole entry): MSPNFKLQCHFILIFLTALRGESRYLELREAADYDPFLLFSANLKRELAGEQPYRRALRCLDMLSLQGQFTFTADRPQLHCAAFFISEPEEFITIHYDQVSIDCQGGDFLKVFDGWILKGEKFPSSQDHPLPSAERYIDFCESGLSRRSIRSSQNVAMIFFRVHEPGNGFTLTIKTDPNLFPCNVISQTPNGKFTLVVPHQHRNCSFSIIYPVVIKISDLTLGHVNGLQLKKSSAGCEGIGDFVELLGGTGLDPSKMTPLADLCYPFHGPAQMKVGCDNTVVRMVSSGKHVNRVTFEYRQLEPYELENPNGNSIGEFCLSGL
In words: Dose Response confirmation of uHTS hits for small molecule antagonists of the CRF-binding protein and CRF-R2 receptor complex. Type of test: functional. The note with it: read-out: IC50_Mean.

Test [2] concerns the target T1, Corticotropin-releasing factor receptor 2/Corticotropin-releasing factor-binding protein. In words: activators of CRF receptor 2 with binding protein – uHTS hits, confirmation (AID 602473). In kind it is functional. Conditions: read-out: EC50_Mean.
For test [3], the target named is Disintegrin and metalloproteinase domain-containing protein 17 (Homo sapiens, UniProt P78536). In words: exosite inhibitors of ADAM17, dose response, biochemical (AID 743260).
Test [4] can be described thus: inhibition of ADAM10 peptide cleavage – biochemical, FRET peptide substrate, recombinant human ADAM10, selectivity assay for ADAM17 exosite inhibitor project, dose response (AID 743259).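 Also: ADAM10 enzyme cleaving a FRET peptide substrate.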
The target in the next test is Paired box protein Pax-8 (Homo sapiens, UniProt Q06710). In words: PAX8 transcriptional activity inhibition in RMG-I – RMG-I cells, luciferase, cherry-pick, dose response (AID 687027).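 Also: luciferase reporter driven by Pax8 target thyroperoxidase promoter measured by SteadyGlo luminescence.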 Type of test: functional, cell-based.
Test [5] is described as follows: toxicity toward immortalized ovarian surface epithelium – cell-based, plate reader, dry powder samples, cytotoxicity control for PAX8 inhibitor project, dose response (AID 743045). Type of test: functional.
Test [6] can be described thus: A2780 cell killing – plate reader, dry powder samples, cytotoxicity control, dose response (AID 743046). In kind it is functional, cell-based.
Test [7] is described as follows: OVCAR-3 cell viability loss – plate reader, dry powder samples, PAX8 inhibitor project, dose response (AID 743044). Type of test: functional, cell-based.
A short description of test [8]: IGROV1 cell killing – plate reader, dry powder samples, PAX8 inhibitor project, dose response (AID 743043). Type of test: functional, cell-based. The note with it: IGROV-1.
Test [9] in a line: OVCAR8 cell viability loss – plate reader, dry powder samples, PAX8 project, dose response (AID 743197). Type of test: functional, cell-based. The note with it: OVCAR-8.
Test [10] in a line: NIH-3T3 fibroblast cytotoxicity, dose response, cytotoxicity control, cell-based, fluorescence, Alamar Blue, secondary assay (AID 2327).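 Also: NIH-3T3 mouse fibroblasts cultured with fluconazole at 8 µg/mL.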 Type of test: functional. A general note: Resazurin is reduced to fluorescent resorufin, in cell work by metabolically active cells.
Test [11] can be described thus: luciferase reporter signal suppression in cells – H4 neuroglioma cells, luminescence, dose response (AID 1990). In kind it is functional, cell-based. In general terms: In a reporter assay the amount or activity of a reporter protein is the signal.
A short description of test [12]: Luminescence Cell-Based Dose Response HTS to Identify Inhibitors of 5'UTR Stem-Loop Driven Prion Protein mRNA Translation in H4 Neuroglioblastoma Cells. [Related pubchem assays: 1827 (Project Summary), 1813 (Primary HTS)]. Type of test: functional.
Test [13] is described as follows: alpha-synuclein stem-loop luciferase translation blockers – H4 neuroglioma cells, luminescence, confirmation (AID 1988). In kind it is functional, cell-based.
The nature of test [14]: fluconazole-exposed Candida albicans growth modulators – fluorescence, retest, confirmation (AID 2467). In kind it is functional, cell-based.
Test [15] can be described thus: Trypanosoma cruzi growth suppression in host cells – NIH3T3 host cells, beta-gal luminescence, confirmation (AID 2044).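 Also: intracellular parasites grown in NIH/3T3 mouse fibroblasts as host cells; luminescent beta-galactosidase reporter signal from transgenic T. cruzi replicating inside host cells; inhibitors lower the luminescence signal.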 Type of test: functional, cell-based.
Test [16] addresses T2, Serine/threonine-protein phosphatase (Candida dubliniensis (strain CD36 / CBS 7987 / NCPF 3949 / NRRLY-17841) (Yeast), UniProt B9W6M3).
T2 sequence (B9W6M3 whole entry): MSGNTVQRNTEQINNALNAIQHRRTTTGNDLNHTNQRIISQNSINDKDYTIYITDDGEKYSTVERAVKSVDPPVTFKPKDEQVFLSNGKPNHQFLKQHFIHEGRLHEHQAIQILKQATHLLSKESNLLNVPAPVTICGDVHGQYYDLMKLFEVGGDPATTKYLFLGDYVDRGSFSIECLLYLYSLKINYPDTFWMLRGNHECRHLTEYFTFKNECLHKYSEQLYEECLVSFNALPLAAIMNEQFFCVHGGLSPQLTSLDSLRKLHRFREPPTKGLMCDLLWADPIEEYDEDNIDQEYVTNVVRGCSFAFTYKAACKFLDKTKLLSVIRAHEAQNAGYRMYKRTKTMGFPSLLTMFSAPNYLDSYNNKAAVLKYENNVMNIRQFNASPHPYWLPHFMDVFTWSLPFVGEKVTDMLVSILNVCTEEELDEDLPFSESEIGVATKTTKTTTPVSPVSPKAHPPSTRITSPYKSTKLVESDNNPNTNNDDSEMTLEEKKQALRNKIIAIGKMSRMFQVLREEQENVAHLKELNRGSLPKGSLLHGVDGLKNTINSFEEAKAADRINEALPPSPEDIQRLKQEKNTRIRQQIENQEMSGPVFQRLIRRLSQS
In words: blockers of CaCl2-induced CDRE-lacZ signaling – S. cerevisiae, luminescence, secondary, dose response (AID 2388).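 Also: yeast reporter cells carrying a calcineurin-responsive lacZ construct stimulated with calcium chloride; luminescent beta-galactosidase reporter signal in whole cells rather than isolated phosphatase activity; potency for inhibition where a drop in reporter signal means calcineurin blockade.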 In kind it is functional, cell-based.

Test [17] can be described thus: NIH3T3 cell viability loss – ATP luminescence, mouse fibroblasts, counter-screen, dose response (AID 2010).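 Also: cells exposed to compound for about 90 hours before reading.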 In kind it is functional, cell-based. (In general: Counterscreens check selectivity or assay interference.)
Test [18] has as its target ATP-dependent molecular chaperone HSP82 (Candida albicans (strain WO-1) (Yeast), UniProt C4YTQ8). In words: steroid-induced GRE reporter decrease in yeast – S. cerevisiae, luminescence, Hsp90 inhibitor project, dose response (AID 2400).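 Also: beta-galactosidase luminescence from glucocorticoid response element reporter as proxy for Hsp90 function; inhibitor potency where signal loss means Hsp90 inhibition.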 Type of test: functional, cell-based.
Test [19] can be described thus: viability loss in Vero cells – cytotoxicity control for Vif-APOBEC3G degradation inhibitor project, dose response (AID 1117358). In kind it is functional. Conditions: Vero.
Test [20] is described as follows: growth inhibition of yeast DHODH-expressing 3D7 parasites – SYBR Green, dry powder samples, dose response (AID 1159570).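 Also: parasite growth measured after 72 hours of compound exposure.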 In kind it is functional, cell-based.
A short description of test [21]: toxicity to human HepG2 hepatoma cells – cell-based, plate reader, dry powder samples, cytotoxicity control, dose response (AID 1159569).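 Also: inhibitor potency with signal falling toward the positive control level.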 In kind it is functional.
The nature of test [22]: P. falciparum Dd2 growth inhibitors, dose response, SYBR Green, cherry-picked samples (AID 1159567). Type of test: functional, cell-based.
A short description of test [23]: Dd2 malaria parasite growth inhibition potency – SYBR Green, dry powder samples, dose response (AID 1159566).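 Also: potency for growth inhibition with lower SYBR green DNA signal.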 In kind it is functional, cell-based.
Test [24] can be described thus: growth inhibition of PfATP4-mutant resistant parasites – NITD609-resistant line, SYBR Green, dry powder, dose response (AID 1159571).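 Also: parasites synchronized at ring stage by sorbitol before testing.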 Type of test: functional, cell-based.

Calls of active or inactive are those of the source.

Disintegrin and metalloproteinase domain-containing protein 17, sequence (P78536 whole entry, the tested form may be a part): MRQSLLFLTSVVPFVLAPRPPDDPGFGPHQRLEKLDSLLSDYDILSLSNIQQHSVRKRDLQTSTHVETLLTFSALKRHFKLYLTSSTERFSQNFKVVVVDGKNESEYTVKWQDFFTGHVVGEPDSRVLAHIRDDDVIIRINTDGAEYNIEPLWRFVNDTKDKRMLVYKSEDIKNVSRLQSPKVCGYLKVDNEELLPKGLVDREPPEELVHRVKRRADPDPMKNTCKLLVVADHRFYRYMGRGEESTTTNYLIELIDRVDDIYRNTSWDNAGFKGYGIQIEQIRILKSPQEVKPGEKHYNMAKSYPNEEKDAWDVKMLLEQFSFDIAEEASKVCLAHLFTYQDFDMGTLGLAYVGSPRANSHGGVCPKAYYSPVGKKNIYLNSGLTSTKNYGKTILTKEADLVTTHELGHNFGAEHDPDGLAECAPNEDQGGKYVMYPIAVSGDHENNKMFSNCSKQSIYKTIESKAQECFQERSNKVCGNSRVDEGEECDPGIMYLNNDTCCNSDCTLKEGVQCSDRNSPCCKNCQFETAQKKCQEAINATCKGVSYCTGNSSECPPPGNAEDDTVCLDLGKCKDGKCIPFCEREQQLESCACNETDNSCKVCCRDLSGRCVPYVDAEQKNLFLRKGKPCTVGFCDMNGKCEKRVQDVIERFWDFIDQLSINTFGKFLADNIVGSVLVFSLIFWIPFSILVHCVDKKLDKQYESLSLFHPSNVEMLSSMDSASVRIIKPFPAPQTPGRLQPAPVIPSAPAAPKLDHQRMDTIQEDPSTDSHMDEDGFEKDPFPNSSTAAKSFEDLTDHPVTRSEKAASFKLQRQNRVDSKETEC
ATP-dependent molecular chaperone HSP82, sequence (C4YTQ8 whole entry): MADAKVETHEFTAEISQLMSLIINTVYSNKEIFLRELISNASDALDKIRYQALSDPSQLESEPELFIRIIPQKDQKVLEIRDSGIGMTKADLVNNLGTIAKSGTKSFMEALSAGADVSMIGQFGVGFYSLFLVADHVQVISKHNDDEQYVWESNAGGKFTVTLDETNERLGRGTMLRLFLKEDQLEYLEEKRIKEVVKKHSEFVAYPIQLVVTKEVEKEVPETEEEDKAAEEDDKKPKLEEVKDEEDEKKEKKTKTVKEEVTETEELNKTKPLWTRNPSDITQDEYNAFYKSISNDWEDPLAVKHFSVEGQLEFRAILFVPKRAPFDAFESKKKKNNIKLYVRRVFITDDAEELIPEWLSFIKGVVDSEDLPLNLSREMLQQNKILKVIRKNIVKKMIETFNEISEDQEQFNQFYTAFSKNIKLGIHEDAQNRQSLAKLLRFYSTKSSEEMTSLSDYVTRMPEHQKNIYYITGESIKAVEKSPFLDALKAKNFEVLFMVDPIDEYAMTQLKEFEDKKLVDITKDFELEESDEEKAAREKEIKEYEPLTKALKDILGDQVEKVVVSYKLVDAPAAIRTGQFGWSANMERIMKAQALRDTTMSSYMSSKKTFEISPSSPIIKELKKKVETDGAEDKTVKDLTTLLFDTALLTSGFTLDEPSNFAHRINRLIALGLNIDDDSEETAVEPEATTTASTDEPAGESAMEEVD
Paired box protein Pax-8, sequence (Q06710 whole entry): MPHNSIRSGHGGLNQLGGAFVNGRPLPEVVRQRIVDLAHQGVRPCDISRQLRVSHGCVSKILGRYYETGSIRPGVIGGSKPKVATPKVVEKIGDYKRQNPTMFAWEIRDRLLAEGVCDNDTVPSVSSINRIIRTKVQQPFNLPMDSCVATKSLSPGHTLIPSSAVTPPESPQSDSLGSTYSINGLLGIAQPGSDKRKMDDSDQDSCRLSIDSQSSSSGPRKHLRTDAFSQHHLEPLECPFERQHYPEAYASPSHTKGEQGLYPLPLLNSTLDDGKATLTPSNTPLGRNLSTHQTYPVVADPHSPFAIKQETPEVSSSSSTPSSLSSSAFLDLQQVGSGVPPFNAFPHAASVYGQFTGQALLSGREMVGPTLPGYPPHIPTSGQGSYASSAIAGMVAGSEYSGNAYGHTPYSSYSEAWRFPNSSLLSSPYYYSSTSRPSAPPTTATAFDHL

With `Cc1cc2oc(=O)cc(-c3ccccc3)c2c(C)c1-c1ccc(O)cc1`, the IC50 in test [1] was > 47.1 µM (inactive); in test [3], > 69.5 µM (inactive); in test [4], > 69.5 µM (inactive). Further, in test [2], the EC50 was > 53 µM (inactive).

With `C[C@@H]1CCCCO[C@@H](CN(C)Cc2ccc(Cl)c(Cl)c2)[C@H](C)CN([C@@H](C)CO)C(=O)c2cc(NC(=O)CCC(F)(F)F)ccc2O1`, the concentration at half-maximal activity (AC50) (as a rule, the midpoint of the concentration-response curve, whichever way the signal moves) on Paired box protein Pax-8 is 9.32 µM (active); in [5], 23.4 µM (active); in [6] it was 27.3 µM (active); in test [7] it was 16.1 µM (active); in test [8], 21.9 µM (active); in test [9] it was 17.1 µM (active).

Turning to `CC(=O)O/N=C/c1c(N2CCOCC2)n(C)c2ccccc12`, the EC50 in test [10] was > 160 µM (inactive); in test [11], > 120 µM (not active); in test [12], > 120 µM (not active); in test [13], 38.6 µM (active); in [14] it was 0.145 µM (active); in test [15] it was 1.25 µM (active). In addition, the EC50 in [16] is > 180 µM (inactive); in test [17], 4.45 µM (active); in test [18] it was > 160 µM (inactive). Moreover, the 50% cytotoxic concentration (CC50) (as a rule, the concentration giving 50% cytotoxicity) in [19] was > 40 µM (active).

As to `C[C@H]1CN([C@@H](C)CO)C(=O)c2ccccc2-c2ccccc2CO[C@H]1CN(C)Cc1ccc(-c2ccccc2)cc1`, the AC50 in [20] was 3.92 µM (active); in [21], 22.2 µM (active); in test [22], 1.59 µM (active); in [23] it was 1.11 µM (active); in test [24] it was 1.19 µM (active).

For the molecule `CC(C)(C)[S@+]([O-])N1Cc2cc(C(=O)NCc3ccccc3F)nc(-c3cccc(-c4ccncc4)c3)c2[C@@H]1CCO`, the AC50 in [20] was 1.36 µM (active); in [21], 29.1 µM (active); in test [22], 1.68 µM (active); in [23], 1.42 µM (active); in test [24], 1.93 µM (active).

For the origin of these results see ChEMBL document CHEMBL1201862, “PubChem BioAssay data set” (2004).
